Experimental data reported in patent US20240075004A1, “VERY-LONG-CHAIN POLYUNSATURATED FATTY ACIDS, ELOVANOID HYDROXYLATED DERIVATIVES, AND METHODS OF USE” (The Board of Supervisors of Louisiana State University and …, priority 2020, published 2024).

Legend:
Adiponectin = Adiponectin levels in diabetic hypothalamus and adipose tissue
[1] = test system: IL-6, IL-1β, IL-8/CXCL8, CCL2/MCP-1, CXCL1/KC/GRO, VEGF, ICAM1(CD54), IL-10; assay: Sandwich ELISA of cytokines and chemokines in HNEpC challenged with stressors; type: cell-based, human; settings: allergens
From the text: • Lipopolysaccharide (LPS) from Escherichia coli serotype 0111:B4 (Catalog #L4391) were obtained from Sigma-Aldrich. LPS is the principal component of Gram-negative bacteria that activates the innate immune system through its recognition by Toll-like receptor 4 (TLR4). This leads to a signaling cascade that ultimately results in the activation of NF-κB and the production of proinflammatory cytokines. LPS we used for our experiments is a preparation of smooth (S)-form LPS purified from the Gram-negative E. coli 0111:B4 that was used at 30 μg/mL to challenge HNEpC. • Polyinosinic-polycytidylic acid (abbreviated as poly(I:C) or poly(rI):poly(rC)) is a synthetic analog of double-stranded viral RNA (dsRNA), a molecular pattern associated with viral infection such as loss of epithelial integrity, increased production of mucus and inflammatory cytokines. Poly(I:C), a TLR3 agonist activates the antiviral pattern recognition receptors TLR3, RIG-I/MDA5 and PKR, thereby inducing signaling via multiple inflammatory pathways, including NF-κB and IRF. High Molecular Weight Poly(I:C) comprises long strands of inosine poly(I) homopolymer annealed to strands of cytidine poly(C) homopolymer. The average size of Poly(I:C) HMW is from 1.5 kb to 8 kb. […]

## CC/C=C\C[C@H](O)\C=C/C=C/C=C/[C@H](O)C/C=C\C/C=C\CCCCCCCCCCCCCCC(=O)O [ELV-N-34]
Adiponectin
  adiponectin in subcutaneous adipose tissue (SAT) and visceral adipose tissue (VAT): Differential effect
Adiponectin; ELV34 treatment
  levels of Adiponectin: increased
Adiponectin; female and males
  adiponectin in diabetic hypothalamus: trend of increase
[1]
  allergen-triggered production of inflammatory cytokines, chemokines, ICAM1 and induction of autophagy and SASP: attenuated
